Measured values taken from ChEMBL document CHEMBL1201862, “PubChem BioAssay data set” (2004).
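Step 1: Grow cells in 96-well plates. Step 2: Expose to compound for 48 hours at 5 concentrations. Step 3: Interpolate endpoints linearly; if unreached, use highest concentration. At the GI50, growth is halved.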 Calls of active or inactive are those of the source. Rule as the data show it: active = GI50 up to about 1.1 µM and inactive = higher.

How the values were obtained:
Test in all cases: NCI tumour cell line growth inhibition, 48 h
UACC-257 = system: UACC-257
A498 = system: A498
SNB-19 = system: SNB-19
SK-MEL-28 = system: SK-MEL-28
MOLT-4 = system: MOLT-4
786-0 = system: 786-0
SK-MEL-2 = system: SK-MEL-2
NCI-H226 = system: NCI-H226
K562 = system: K562
KM12 = system: KM12
HOP-62 = system: HOP-62
LXFL 529 = system: LXFL 529
NCI-H23 = system: NCI-H23
EKVX = system: EKVX
HOP-92 = system: HOP-92
SNB-75 = system: SNB-75
Malme-3M = system: Malme-3M
HT-29 = system: HT-29
SR = system: SR
SF-539 = system: SF-539
OVCAR-8 = system: OVCAR-8
SW-620 = system: SW-620
SK-OV-3 = system: SK-OV-3
A549 = system: A549
UACC-62 = system: UACC-62
OVCAR-3 = system: OVCAR-3
SF-268 = system: SF-268
M14 = system: M14
SK-MEL-5 = system: SK-MEL-5
DMS-114 = system: DMS-114
HCC 2998 = system: HCC 2998
SF-295 = system: SF-295
DMS-273 = system: DMS-273
M19-MEL = system: M19-MEL
HL-60 = system: HL-60
XF498 = system: XF498
NCI-H522 = system: NCI-H522
OVCAR-4 = system: OVCAR-4
SNB-78 = system: SNB-78
UO-31 = system: UO-31
CCRF-CEM = system: CCRF-CEM
COLO 205 = system: COLO 205
CAKI-1 = system: CAKI-1
IGROV-1 = system: IGROV-1
DLD-1 = system: DLD-1
HCT-116 = system: HCT-116
RPMI-8226 = system: RPMI-8226
SN12C = system: SN12C
RXF 631 = system: RXF 631
TK-10 = system: TK-10
NCI-H460 = system: NCI-H460
OVCAR-5 = system: OVCAR-5
RXF 393 = system: RXF 393
HCT-15 = system: HCT-15
LOX IMVI = system: LOX IMVI
U-251 = system: U-251
ACHN = system: ACHN

CC(=O)C1=CSC2[C@H](NC(=O)Cc3ccccc3)C(=O)N2C1C(=O)OC(c1ccccc1)c1ccccc1 (some centres not stated)
GI50 (UACC-257): > 100 µM (inactive) | GI50 (A498): > 100 µM (inactive) | GI50 (SNB-19): > 100 µM (inactive) | GI50 (SK-MEL-28): > 100 µM (inactive) | GI50 (MOLT-4): 35.8 µM (inactive) | GI50 (786-0): 60.5 µM (inactive) | GI50 (SK-MEL-2): > 100 µM (inactive) | GI50 (NCI-H226): > 100 µM (inactive) | GI50 (K562): > 100 µM (inactive) | GI50 (KM12): > 100 µM (inactive) | GI50 (HOP-62): 58.6 µM (inactive) | GI50 (LXFL 529): > 100 µM (inactive) | GI50 (NCI-H23): 51.6 µM (inactive) | GI50 (EKVX): > 100 µM (inactive) | GI50 (HOP-92): 46.5 µM (inactive) | GI50 (SNB-75): 56.2 µM (inactive) | GI50 (Malme-3M): > 100 µM (inactive) | GI50 (HT-29): > 100 µM (inactive) | GI50 (SR): 36.7 µM (inactive) | GI50 (SF-539): > 100 µM (inactive) | GI50 (OVCAR-8): > 100 µM (inactive) | GI50 (SW-620): 93.5 µM (inactive) | GI50 (SK-OV-3): > 100 µM (inactive) | GI50 (A549): 91.8 µM (inactive) | GI50 (UACC-62): 30.1 µM (inactive) | GI50 (OVCAR-3): > 100 µM (inactive) | GI50 (SF-268): 47.6 µM (inactive) | GI50 (M14): > 100 µM (inactive) | GI50 (SK-MEL-5): 65.6 µM (inactive) | GI50 (DMS-114): 84.3 µM (inactive) | GI50 (HCC 2998): > 100 µM (inactive) | GI50 (SF-295): 40.7 µM (inactive) | GI50 (DMS-273): 67.9 µM (inactive) | GI50 (M19-MEL): 96.4 µM (inactive) | GI50 (HL-60): 35.2 µM (inactive) | GI50 (XF498): > 100 µM (inactive) | GI50 (NCI-H522): > 100 µM (inactive) | GI50 (OVCAR-4): > 100 µM (inactive) | GI50 (SNB-78): > 100 µM (inactive) | GI50 (UO-31): > 100 µM (inactive) | GI50 (CCRF-CEM): 23.1 µM (inactive) | GI50 (COLO 205): > 100 µM (inactive) | GI50 (CAKI-1): 59 µM (inactive) | GI50 (IGROV-1): > 100 µM (inactive) | GI50 (DLD-1): > 100 µM (inactive) | GI50 (HCT-116): > 100 µM (inactive) | GI50 (RPMI-8226): 39.5 µM (inactive) | GI50 (SN12C): > 100 µM (inactive) | GI50 (RXF 631): > 100 µM (inactive) | GI50 (TK-10): > 100 µM (inactive)

O=C1C[C@@H]2CCCC[C@@H]2C12SCCS2
GI50 (UACC-257): > 100 µM (inactive) | GI50 (A498): > 100 µM (inactive) | GI50 (SNB-19): > 100 µM (inactive) | GI50 (SK-MEL-28): 89.3 µM (inactive) | GI50 (NCI-H460): > 100 µM (inactive) | GI50 (MOLT-4): 69.8 µM (inactive) | GI50 (786-0): > 100 µM (inactive) | GI50 (SK-MEL-2): > 100 µM (inactive) | GI50 (K562): > 100 µM (inactive) | GI50 (KM12): > 100 µM (inactive) | GI50 (HOP-62): > 100 µM (inactive) | GI50 (OVCAR-5): > 100 µM (inactive) | GI50 (LXFL 529): > 100 µM (inactive) | GI50 (NCI-H23): 95.1 µM (inactive) | GI50 (EKVX): > 100 µM (inactive) | GI50 (SNB-75): 61.9 µM (inactive) | GI50 (Malme-3M): > 100 µM (inactive) | GI50 (RXF 393): 54.2 µM (inactive) | GI50 (SF-539): > 100 µM (inactive) | GI50 (OVCAR-8): > 100 µM (inactive) | GI50 (SW-620): > 100 µM (inactive) | GI50 (SK-OV-3): > 100 µM (inactive) | GI50 (HCT-15): > 100 µM | GI50 (A549): > 100 µM (inactive) | GI50 (UACC-62): 77.3 µM (inactive) | GI50 (OVCAR-3): > 100 µM (inactive) | GI50 (SF-268): > 100 µM (inactive) | GI50 (SK-MEL-5): 92.5 µM (inactive) | GI50 (DMS-114): 89.1 µM (inactive) | GI50 (HCC 2998): > 100 µM (inactive) | GI50 (SF-295): > 100 µM (inactive) | GI50 (DMS-273): > 100 µM (inactive) | GI50 (M19-MEL): > 100 µM (inactive) | GI50 (HL-60): 80 µM (inactive) | GI50 (XF498): 58.1 µM (inactive) | GI50 (NCI-H522): 69 µM (inactive) | GI50 (OVCAR-4): > 100 µM (inactive) | GI50 (SNB-78): > 100 µM (inactive) | GI50 (LOX IMVI): > 100 µM (inactive) | GI50 (U-251): > 100 µM (inactive) | GI50 (UO-31): 32.1 µM (inactive) | GI50 (CCRF-CEM): > 100 µM (inactive) | GI50 (COLO 205): > 100 µM (inactive) | GI50 (CAKI-1): > 100 µM (inactive) | GI50 (IGROV-1): > 100 µM (inactive) | GI50 (DLD-1): > 100 µM (inactive) | GI50 (HCT-116): > 100 µM (inactive) | GI50 (ACHN): > 100 µM (inactive) | GI50 (RPMI-8226): > 100 µM (inactive) | GI50 (SN12C): > 100 µM (inactive) | GI50 (RXF 631): > 100 µM (inactive) | GI50 (TK-10): > 100 µM (inactive)
